According to US20060014193A1, “Nucleoside phosphoramidates and nucleoside phosphoramidases” (priority 2004, published 2006):
Read-outs that look alike come from different tables or passages of the source.

Assays:
hHINT1 [1] = biological target: T1, hHINT1 (Homo sapiens, UniProt P49773); test: 31P NMR phosphoramidase assay of purified protein; format: biochemical; settings: for Specific activity: 10 mM substrate, pH 7.2, 22° C.
Description: (§1) Phosphoramidase activity in cell lysates was measured by the ^1H-decoupling mode of phosphorus-31 NMR spectroscopy (Varian VAC-300 spectrometer), which can clearly distinguish the substrate, AMP-NH2, and the product, adenosine 5′-monophosphate (AMP). NMR spectrometry is suitable for quantitation by integration of the area under the peak, which is proportional to the amount of nuclei present. The relative ratio of peak areas can be used to calculate the amount of turnover corrected based on a standard curve.
(§2) Cell lysates from E. coli Tuner(DE3)pLacI cells (Novagen) were obtained by treatment with lysozyme (1 mg/ml) and the DNA was precipitated by protamine sulfate followed by centrifugation to remove cell debris. The supernatant was dialyzed extensively against Buffer A (20 mM Tris (pH 7.0); 1 mM EDTA; 1 mM DTT, 0.01 mM PMSF) to remove cellular phosphates and nucleotides. Phosphate free cell lysates (0.75 mg total protein) were incubated with 5 mM AMP-NH2 in 0.5 ml reaction buffer (0.5 mM MgCl2, 20 mM HEPES (pH 7.2)) at 37° C. for intervals of 15 min, 30 min, and 12 h. The reactions were terminated by snap freezing in a dry ice/acetone slush bath and lyophilized for 5 h. The samples were then dissolved in NMR buffer (600 μL, 50 mM EDTA, 20 mM HEPES (pH 7.2), and 1 mM TMP (trimethylphosphate, internal standard)) and the insoluble portion was spun down by centrifugation at 12,500×g for 5 min. A ^31P NMR spectrum was then collected for the supernatant. For the low pH control experiment, 10 mM AMP-NH2 in reaction buffer (500 μL, pH 2.0) was incubated at 37° C. for 12 h and the 31p signal was detected under the same conditions.
(§3) Five recombinant purified proteins were tested with three commercial available compounds (Sigma): AMP-NH2, adenosine 5′-monophosphomorpholidate (AMP-Mor), and guanosine 5′-monophosphomorpholidate (GMP-Mor) (FIG. 1). The compounds (10 mM) were incubated with proteins (2.5-10 μg) in the reaction buffer (500 μL, 0.5 mM MgCl2, 20 mM HEPES (pH 7.2)) at 22° C. for intervals of 36 and 66 min. The reactions were quenched by adding 5 M NaOH (20 μL), followed by snap freezing in a dry ice/acetone slush bath, and lyophilized. The sample preparation for ^31P NMR measurement was as described above for the cell-lysate experiment except that the pH was adjusted by the addition of 12 μL 6 M HCl before NMR spectra were collected.

E. coli hinT-DHFR = biological target: T2, E. coli hinT-DHFR (Escherichia coli, UniProt P0ABQ4+P0ACE7); test: 31P NMR phosphoramidase assay of purified protein; format: biochemical; settings: 10 mM substrate, pH 7.2, 22° C.
T2 construct: made in house; host or cells: E. coli Tuner(DE3)pLacI
Description: as §1, §2, §3

Rabbit HINT1 = biological target: T3, Rabbit HINT1 (Oryctolagus cuniculus, UniProt P80912); test: 31P NMR phosphoramidase assay of purified protein; format: biochemical; settings: for Specific activity: 10 mM substrate, pH 7.2, 22° C.
T3 construct: made in house; host or cells: E. coli hinT deletion mutant
Description: as §1, §2, §3

E. coli hinT [2] = biological target: T4, E. coli hinT (Escherichia coli, UniProt P0ACE7); test: 31P NMR phosphoramidase assay of purified protein; format: biochemical; settings: for Specific activity: 10 mM substrate, pH 7.2, 22° C.
T4 sequence (P0ACE7 1-119): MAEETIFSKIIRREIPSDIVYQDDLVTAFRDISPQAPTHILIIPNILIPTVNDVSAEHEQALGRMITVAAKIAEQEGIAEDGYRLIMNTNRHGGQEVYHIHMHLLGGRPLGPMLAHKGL
Description: as §1, §2, §3

Human Hint1-DHFR = biological target: T5, Human Hint1-DHFR (UniProt P0ABQ4+P49773); test: 31P NMR phosphoramidase assay of purified protein; format: biochemical; settings: 10 mM substrate, pH 7.2, 22° C.
T5 construct: made in house; host or cells: E. coli (following the procedure for the hinT plasmid)
Description: as §1, §2, §3

E. coli hinT [3] = biological target: T4, E. coli hinT; test: Phosphoramidase fluorescence assay; format: biochemical; settings: Table 5
Description: The fluorescence of tryptophan (ex, 280 nm, em 360 nm) can be quenched when covalently attached to a nucleoside monophosphate, and nucleoside phosphoramidates of D- and L-tryptophan and tryptamine are excellent fluorescent substrates for hHINT1. […] Based on the generation of chimeric polypeptides between the hHINTI and the hinT of E. coli, the preference for D enantiomers by the human HINT1 polypeptide is likely conferred by the C-terminus amino acids (e.g., the C-terminus 5, 6, 5 7, 8, 9, 10, or 11 amino acids) of the hHINT1 enzyme. […] In addition, both D-tryptophan phosphoramidates of cytosine and uridine were substrates. Initial rates were determined 10 during the first 10-20% of the reaction for variable substrate concentrations. The Michaelis-Menten constants, kcat and Km, for selected nucleoside phosphosphoramidates have been determined. […] As observed in the initial screening assay, for phosphoramidates containing L-tryptophan, hHINT1 has a 7-fold greater preference for AMP phosphoramidates of L-tryptophan than GMP.
In addition, the Michaelis-Menten constants, kcat and Km, for selected nucleoside phosphosphoramidates were determined for both human Hint1 and E. coli hinT (Table 5).

hHINT1 [4] = biological target: T1, hHINT1; test: Phosphoramidase fluorescence assay; format: biochemical; settings: for Kcat / Km: Table 5
Description: The fluorescence of tryptophan (ex, 280 nm, em 360 nm) can be quenched when covalently attached to a nucleoside monophosphate, and nucleoside phosphoramidates of D- and L-tryptophan and tryptamine are excellent fluorescent substrates for hHINT1. Typically, after measurement of initial substrate fluorescence, hHINT1 was added to the reaction solution (HEPES buffer, pH 7.2, 25° C.) and the change in fluorescence over 2 min was determined by converting the slope into μM of substrate hydrolyzed per μg of enzyme per min with a standard curve. […] Based on the generation of chimeric polypeptides between the hHINTI and the hinT of E. coli, the preference for D enantiomers by the human HINT1 polypeptide is likely conferred by the C-terminus amino acids (e.g., the C-terminus 5, 6, 5 7, 8, 9, 10, or 11 amino acids) of the hHINT1 enzyme. […] In addition, both D-tryptophan phosphoramidates of cytosine and uridine were substrates. Initial rates were determined 10 during the first 10-20% of the reaction for variable substrate concentrations. The Michaelis-Menten constants, kcat and Km, for selected nucleoside phosphosphoramidates have been determined. (Table 4). As observed in the initial screening assay, for phosphoramidates containing L-tryptophan, hHINT1 has a 7-fold greater preference for AMP phosphoramidates of L-tryptophan than GMP.

hHINT1 [5] = biological target: T1, hHINT1; settings: literature (J. Biol. Chem. 2004, 279, 18711; 2002, 277, 10852); cited from earlier work
hHINT1 [6] = biological target: T1, hHINT1; test: Catalytic activity (velocity) of cloned, purified phosphoramidase with AMPNH2; format: biochemical
Description: The enzyme responsible for hydrolysis of AZT amino acid phosphoramidates was cloned and characterized. After construction of a cDNA library from peripheral blood mononuclear cells (PBMCs) in T7Select10-3b phage, the phage display technique was employed to isolate the enzyme by affinity chromatography. After three rounds of phage selection and ampilification with an affinity column constructed from the L-tryptophan carbamate, DNA from ten selected plaques was amplified by PCR and sequenced. […] Hint1 is a member of the HIT protein superfamily, which consists of a recently identified adenosine 5′-monophosphoramide hydrolases from rabbit and yeast.
Velocity of the enzymes was determined at pH 7.2 at room temperature in the presence of 10 mM AMPNH2.

[7] = FIG. 5 substrate preference screen

| Compound | Kcat (E. coli hinT [3]) [s⁻¹] | Km (E. coli hinT [3]) [µM] | Kcat (hHINT1 [4]) [s⁻¹] | Km (hHINT1 [4]) [µM] | other results |
| --- | --- | --- | --- | --- | --- |
| Nc1ncnc2c1ncn2[C@@H]1O[C@H](COP(=O)(O)N2CCOCC2)[C@@H](O)[C@H]1O [AMP-Mor, adenosine 5′-monophosphomorpholidate] | – | – | – | – | Specific activity (hHINT1 [1]): 45.0 ± 0 nmol nmol^−1 min^−1; Specific activity (E. coli hinT-DHFR): 411 ± 4 nmol nmol^−1 min^−1; Specific activity (Rabbit HINT1): 26.6 ± 0.6 nmol nmol^−1 min^−1; Specific activity (E. coli hinT [2]): 360 ± 1 nmol nmol^−1 min^−1; Specific activity (Human Hint1-DHFR): 43.4 ± 4.0 nmol nmol^−1 min^−1 |
| Nc1ncnc2c1ncn2[C@@H]1O[C@H](COP(=O)(O)NCCc2c[nH]c3ccccc23)[C@@H](O)[C@H]1O [AMP-Tryptamine] | 4.07 ± 0.11 | 5.03 ± 0.21 | 2.05 ± 0.27 | 0.25 ± 0.05 | – |
| Nc1ncnc2c1ncn2[C@@H]1O[C@H](COP(=O)(O)NCCCC[C@H](N)C(=O)O)[C@@H](O)[C@H]1O [AMP-lysine] | – | – | – | – | Kcat (hHINT1 [5]): 0.234 ± 0.011 s⁻¹; Km (hHINT1 [5]): 0.472 ± 0.057 µM |
| Nc1ncnc2c1ncn2[C@@H]1O[C@H](COP(=O)(O)NCCc2c[nH]c3ccccc23)[C@@H](O)[C@@H]1O [Ara-AMP-Tryptamine] | 0.95 ± 0.17 | 34.6 ± 5.64 | 0.85 ± 0.1 | 0.79 ± 0.11 | – |
| Nc1nc2c(ncn2C2OC(COP(=O)(O)NC(Cc3c[nH]c4ccccc34)C(=O)O)C(O)C2O)c(=O)[nH]1 [GMP D-tryptophan phosphoramidate, guanosine monophosphate (GMP) D-tryptophan phosphoramidate] | – | – | – | – | Activity relative to 7-benzyl guanosine monophosphate (7-Bn GMP) (hHINT1 [4]; [7]): approximately 7 fold; Activity relative to GMP L-tryptophan (hHINT1 [4]; [7]): nearly identical |
| COC(=O)[C@@H](Cc1c[nH]c2ccccc12)NP(=O)(O)OC[C@H]1O[C@@H](n2cnc3c(=O)[nH]c(N)nc32)[C@H](O)[C@@H]1O [GMP-D-TrpCOOMe] | 1.75 ± 0.05 | 21.3 ± 1.21 | 0.29 ± 0.02 | 3.27 ± 0.58 | – |
| Nc1nc2c(ncn2[C@@H]2O[C@H](COP(=O)(O)N3CCOCC3)[C@@H](O)[C@H]2O)c(=O)[nH]1 [GMP-Mor, guanosine 5′-monophosphomorpholidate] | – | – | – | – | Preference for GMP-Mor over AMP-Mor (hHINT1 [1]): 2 fold; Specific activity (hHINT1 [1]): 78.7 ± 1.3 nmol nmol^−1 min^−1; Specific activity (E. coli hinT-DHFR): 675 ± 17 nmol nmol^−1 min^−1; Preference for GMP-Mor over AMP-Mor (Rabbit HINT1): 2 fold; Specific activity (Rabbit HINT1): 48.6 ± 0.4 nmol nmol^−1 min^−1; Preference for GMP-Mor over AMP-Mor (E. coli hinT [2]): 2 fold; Specific activity (E. coli hinT [2]): 669 ± 1 nmol nmol^−1 min^−1; Specific activity (Human Hint1-DHFR): 87.2 ± 11.8 nmol nmol^−1 min^−1 |
| Nc1nc2c(ncn2[C@@H]2O[C@H](COP(=O)(O)NCCc3c[nH]c4ccccc34)[C@@H](O)[C@H]2O)c(=O)[nH]1 [GMP-Tryptamine] | 3.45 ± 0.3 | 5.34 ± 0.69 | 2.09 ± 0.16 | 0.243 ± 0.03 | – |
| O=c1[nH]cnc2c1ncn2[C@@H]1O[C@H](COP(=O)(O)NCCc2c[nH]c3ccccc23)[C@@H](O)[C@H]1O [IMP-Tryptamine] | 3.89 ± 0.18 | 13.7 ± 0.67 | 2.53 ± 0.09 | 0.71 ± 0.03 | – |
| Cc1cn([C@H]2C[C@H](O)[C@@H](COP(=O)(O)NCCc3c[nH]c4ccccc34)O2)c(=O)[nH]c1=O [TMP-Tryptamine] | 0.014 ± 0.001 | 35.9 ± 2.27 | 0.044 ± 0.01 | 26.1 ± 2.78 | – |
| O=c1ccn([C@@H]2O[C@H](COP(=O)(O)NCCc3c[nH]c4ccccc34)[C@@H](O)[C@H]2O)c(=O)[nH]1 [UMP-Tryptamine] | 1.63 ± 0.22 | 25.1 ± 3.56 | 1.85 ± 0.29 | 1.42 ± 0.25 | – |
| AZT tryptophan phosphoramidate | – | – | – | – | Hydrolysis by over-expressed, purified human Hint1 (hHINT1 [6]): to a lesser extent |
